Measurements taken from PubChem BioAssay (NCI).
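Briefly, cells in 96-well plates were exposed to five compound concentrations for 48 h, and endpoints were estimated by linear interpolation. At the GI50, growth is halved. TGI marks complete inhibition of growth.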

What was measured:
Assay in all cases: inhibition of tumour cell growth, NCI panel, 48 h
786-0 renal = system: 786-0 renal
NCI-H460 lung = system: NCI-H460 lung
KM12 colon = system: KM12 colon
UO-31 renal = system: UO-31 renal
BT-549 breast = system: BT-549 breast
HCC-2998 colon = system: HCC-2998 colon
OVCAR-5 ovarian = system: OVCAR-5 ovarian
SN12C renal = system: SN12C renal
SF-295 CNS = system: SF-295 CNS
EKVX NSCLC = system: EKVX NSCLC

`Cc1ccc2c(c1)O/C(=C\c1ccc([N+](=O)[O-])o1)C2=O` showed a GI50 (786-0 renal) of 2.15 µM, a TGI (786-0 renal) of 4.72 µM and a GI50 (NCI-H460 lung) of 1.58 µM. It also gave a TGI (NCI-H460 lung) of 3.22 µM, a GI50 (KM12 colon) of 1.7 µM and a TGI (KM12 colon) of 3.4 µM. For the same compound, the GI50 (UO-31 renal) was 1.18 µM, the TGI (UO-31 renal) was 3.46 µM and the GI50 (BT-549 breast) was 1.82 µM. For the same compound, the TGI (BT-549 breast) was 3.47 µM, the GI50 (HCC-2998 colon) was 2.05 µM and the TGI (HCC-2998 colon) was 4.49 µM. It also gave a GI50 (OVCAR-5 ovarian) of 2.4 µM, a TGI (OVCAR-5 ovarian) of 4.75 µM and a GI50 (SN12C renal) of 1.92 µM. For the same compound, the TGI (SN12C renal) was 4.96 µM, the GI50 (SF-295 CNS) was 2.42 µM and the TGI (SF-295 CNS) was 7.06 µM.

`[C-]#[N+][C@]12C(=O)[C@H](CCC1(C)C)C(C)(C)[C@H]1C(=O)N(C)c3cccc2c31` showed a GI50 (786-0 renal) greater than 100 µM, a TGI (786-0 renal) greater than 100 µM and a GI50 (NCI-H460 lung) of 5.02 µM. It also gave a TGI (NCI-H460 lung) greater than 100 µM, a GI50 (KM12 colon) of 9.99 µM and a TGI (KM12 colon) greater than 100 µM. The GI50 (BT-549 breast) was 46.2 µM, the TGI (BT-549 breast) was greater than 100 µM and the GI50 (HCC-2998 colon) was greater than 100 µM. It also gave a TGI (HCC-2998 colon) greater than 100 µM, a GI50 (OVCAR-5 ovarian) greater than 100 µM and a TGI (OVCAR-5 ovarian) greater than 100 µM. It also gave a GI50 (SN12C renal) of 41.9 µM and a TGI (SN12C renal) greater than 100 µM.

Compound `COc1cc(C2=NN(c3ccc(S(N)(=O)=O)cc3)C(c3ccc(Cl)cc3)C2)cc(OC)c1OC` (centres undefined) has a GI50 (786-0 renal) of 6.43 µM, a TGI (786-0 renal) greater than 100 µM and a GI50 (NCI-H460 lung) of 3.95 µM. The TGI (NCI-H460 lung) was greater than 100 µM, the GI50 (KM12 colon) was 4.79 µM and the TGI (KM12 colon) was greater than 100 µM. For the same compound, the GI50 (UO-31 renal) was 2.5 µM, the TGI (UO-31 renal) was greater than 100 µM and the GI50 (BT-549 breast) was 3.8 µM. For the same compound, the TGI (BT-549 breast) was 46.4 µM, the GI50 (HCC-2998 colon) was 6.93 µM and the TGI (HCC-2998 colon) was greater than 100 µM. It also gave a GI50 (OVCAR-5 ovarian) of 3.69 µM, a TGI (OVCAR-5 ovarian) greater than 100 µM and a GI50 (SN12C renal) of 6.67 µM. The TGI (SN12C renal) was greater than 100 µM, the GI50 (SF-295 CNS) was 2.53 µM and the TGI (SF-295 CNS) was 6.55 µM.

For `CC(=O)/C=C/C1=C(c2cccs2)c2ccccc2CC1`, the GI50 (786-0 renal) was 49.4 µM, the TGI (786-0 renal) was greater than 100 µM and the GI50 (KM12 colon) was 25.2 µM. For the same compound, the TGI (KM12 colon) was 56.2 µM, the GI50 (UO-31 renal) was 25.7 µM and the TGI (UO-31 renal) was 86.4 µM. It also gave a GI50 (BT-549 breast) of 32.6 µM, a TGI (BT-549 breast) greater than 100 µM and a GI50 (HCC-2998 colon) of 25.8 µM. For the same compound, the TGI (HCC-2998 colon) was 59.8 µM, the GI50 (OVCAR-5 ovarian) was 60.7 µM and the TGI (OVCAR-5 ovarian) was greater than 100 µM. It also gave a GI50 (EKVX NSCLC) of 35.1 µM, a TGI (EKVX NSCLC) greater than 100 µM and a GI50 (SN12C renal) of 23.5 µM. For the same compound, the TGI (SN12C renal) was 48.5 µM, the GI50 (SF-295 CNS) was 22.5 µM and the TGI (SF-295 CNS) was 54.5 µM.

For `CCCCCCCCCCCC(=O)c1c(O)cccc1O`, the TGI (786-0 renal) was 32.8 µM, the TGI (NCI-H460 lung) was 42.9 µM and the TGI (KM12 colon) was 30 µM. The TGI (UO-31 renal) was 30.2 µM, the TGI (HCC-2998 colon) was 34.3 µM and the TGI (OVCAR-5 ovarian) was 28.5 µM. It also gave a TGI (EKVX NSCLC) of 33.6 µM, a TGI (SN12C renal) of 34.7 µM and a TGI (SF-295 CNS) of 31.4 µM.

`CC(C(=O)c1ccc(Cl)cc1)C1OC(=O)C(Cl)=C1Cl` (centres undefined) showed a TGI (786-0 renal) of 36 µM, a TGI (NCI-H460 lung) greater than 100 µM and a TGI (KM12 colon) greater than 100 µM. The TGI (UO-31 renal) was greater than 100 µM, the TGI (HCC-2998 colon) was 63.5 µM and the TGI (OVCAR-5 ovarian) was greater than 100 µM. For the same compound, the TGI (EKVX NSCLC) was greater than 100 µM, the TGI (SN12C renal) was 56.3 µM and the TGI (SF-295 CNS) was greater than 100 µM.

`CS(=O)(=O)CCn1c(=O)c(Oc2ccc(F)cc2F)cc2cnc(NC3CCOCC3)nc21` showed a GI50 (786-0 renal) greater than 25 µM, a TGI (786-0 renal) greater than 25 µM and a GI50 (NCI-H460 lung) greater than 25 µM. It also gave a TGI (NCI-H460 lung) greater than 25 µM, a GI50 (KM12 colon) greater than 25 µM and a TGI (KM12 colon) greater than 25 µM. It also gave a GI50 (UO-31 renal) greater than 25 µM, a TGI (UO-31 renal) greater than 25 µM and a GI50 (BT-549 breast) greater than 25 µM. For the same compound, the TGI (BT-549 breast) was greater than 25 µM, the GI50 (HCC-2998 colon) was greater than 25 µM and the TGI (HCC-2998 colon) was greater than 25 µM. For the same compound, the GI50 (OVCAR-5 ovarian) was greater than 25 µM, the TGI (OVCAR-5 ovarian) was greater than 25 µM and the GI50 (SN12C renal) was greater than 25 µM. The TGI (SN12C renal) was greater than 25 µM, the GI50 (SF-295 CNS) was greater than 25 µM and the TGI (SF-295 CNS) was greater than 25 µM.
